Patent US20240116985A1, “STAPLED PEPTIDES AND METHODS THEREOF” (priority 2020, published 2024)

biological target: T1, full-length beta-Catenin (Uniprot ID P35222) (Homo sapiens, UniProt P35222); experiment: Fluorescence polarization IC50 (beta-catenin / 5FAM-TCF4 10-53 competition); type: binding; settings: fluorescence polarization; read-out: beta-Catenin FP IC50
T1 construct: 10 nM full-length beta-Catenin (Uniprot ID P35222)
T1 sequence (P35222 1-781): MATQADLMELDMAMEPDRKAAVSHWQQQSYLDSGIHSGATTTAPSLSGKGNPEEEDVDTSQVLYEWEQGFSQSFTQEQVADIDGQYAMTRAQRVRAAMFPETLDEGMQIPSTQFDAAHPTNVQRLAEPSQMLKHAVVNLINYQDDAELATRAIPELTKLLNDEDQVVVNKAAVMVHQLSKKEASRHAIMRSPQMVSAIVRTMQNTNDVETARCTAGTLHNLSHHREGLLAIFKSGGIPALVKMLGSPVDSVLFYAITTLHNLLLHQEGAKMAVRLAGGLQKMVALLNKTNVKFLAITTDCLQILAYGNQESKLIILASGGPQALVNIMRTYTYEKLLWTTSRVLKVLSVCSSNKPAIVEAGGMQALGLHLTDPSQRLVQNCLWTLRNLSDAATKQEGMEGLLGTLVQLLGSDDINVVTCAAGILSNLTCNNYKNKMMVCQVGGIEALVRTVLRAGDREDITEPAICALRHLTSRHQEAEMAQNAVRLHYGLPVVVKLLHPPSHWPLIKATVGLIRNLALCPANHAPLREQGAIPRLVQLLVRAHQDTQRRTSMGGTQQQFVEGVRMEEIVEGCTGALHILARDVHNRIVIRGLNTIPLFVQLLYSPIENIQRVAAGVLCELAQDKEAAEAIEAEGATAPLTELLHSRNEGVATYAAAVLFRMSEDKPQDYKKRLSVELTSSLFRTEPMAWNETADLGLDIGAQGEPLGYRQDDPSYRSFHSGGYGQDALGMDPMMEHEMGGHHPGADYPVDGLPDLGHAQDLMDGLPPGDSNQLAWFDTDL

Row | SMILES | IC50 [nM]
1 | CC(=O)N1CCC[C@]12CC=CCCCC1(CCCC=CCCCOC(=O)N3CC[C@@](C(=O)N[C@@H](Cc4ccsc4)C(=O)N[C@@H](Cc4csc5ccccc45)C(=O)N[C@@H](CCC(N)=O)C(N)=O)(C3)NC(=O)[C@H](CC(N)=O)NC(=O)[C@H](Cc3ccccc3)NC(=O)[C@H](C)NC(=O)[C@H](C)NC(=O)[C@H]([C@@H](C)O)NC(=O)[C@H](CC(N)=O)NC1=O)NC(=O)[C@H](CC1CCCCC1)NC(=O)[C@H](CC(=O)O)NC2=O (stereo partly drawn) [I-1884, Ac-PL3-Asp-Cha-B5-Asn-Thr-Ala-Ala-Phe-Asn-PyrS2-3Thi-BztA-Gln-NH2] | 249
2 | CC(=O)N1CCC[C@]12CC=CCCCC1(CCCC=CCCCOC(=O)N3CC[C@@](C(=O)N[C@@H](Cc4ccsc4)C(=O)N[C@@H](Cc4csc5ccccc45)C(=O)N[C@@H](CCC(N)=O)C(N)=O)(C3)NC(=O)[C@H](CC(C)C)NC(=O)[C@H](Cc3ccccc3)NC(=O)[C@H](C)NC(=O)[C@H](C)NC(=O)[C@H](CC(=O)O)NC(=O)[C@H](CC(=O)O)NC1=O)NC(=O)[C@H](Cc1ccccc1)NC(=O)[C@H](CC(=O)O)NC2=O (stereo partly drawn) [I-1509, Ac-PL3-Asp-Phe-B5-Asp-Asp-Ala-Ala-Phe-Leu-PyrS2-3Thi-BztA-Gln-NH2] | 11
3 | CC(=O)N1CCC[C@]12CC=CCCCC1(CCCC=CCCCOC(=O)N3CC[C@@](C(=O)N[C@@H](Cc4ccsc4)C(=O)N[C@@H](Cc4csc5ccccc45)C(=O)N[C@@H](CCC(=O)N4CCC(N5CCCCC5)CC4)C(N)=O)(C3)NC(=O)[C@H](CC(C)C)NC(=O)[C@H](Cc3ccccc3)NC(=O)[C@H](C)NC(=O)[C@H](C)NC(=O)[C@H](CN(CC(=O)O)CC(F)(F)F)NC(=O)[C@H](CC(=O)O)NC1=O)NC(=O)[C@H](CC(C)(C)C)NC(=O)[C@H](CC(=O)O)NC2=O (stereo partly drawn) [I-1798, Ac-PL3-Asp-Npg-B5-Asp-TfeGA-Ala-Ala-Phe-Leu-PyrS2-3Thi-BztA-[4Pippip]GlnR-NH2] | 12
4 | CC(=O)N1CCC[C@]12CC=CCCCC1(CCCC=CCCCCOC(=O)N3CC(C(=O)N[C@@H](Cc4ccsc4)C(=O)N[C@@H](Cc4csc5ccccc45)C(=O)N[C@@H](CCC(N)=O)C(N)=O)(C3)NC(=O)[C@H](CC(C)C)NC(=O)[C@H](Cc3ccccc3)NC(=O)[C@H](C)NC(=O)[C@H](C)NC(=O)[C@H](Cc3cccc(C(=O)O)c3)NC(=O)[C@H](CC(=O)O)NC1=O)NC(=O)[C@H](CC(C)(C)C)NC(=O)[C@H](CC(=O)O)NC2=O (stereo partly drawn) [I-2612, Ac-PL3-Asp-Npg-B5-Asp-3COOHF-Ala-Ala-Phe-Leu-Az3-3Thi-BztA-Gln-NH2] | 85
5 | CC(=O)N1CCC[C@]12CC=CCCCC1(CCCC=CCCCOC(=O)N3CC[C@@](C(=O)N[C@@H](Cc4cccc(C)c4)C(=O)N[C@@H](Cc4csc5ccccc45)C(=O)N[C@@H](CCC(N)=O)C(N)=O)(C3)NC(=O)[C@H](CC(N)=O)NC(=O)[C@H](Cc3ccccc3)NC(=O)[C@H](C)NC(=O)[C@H](C)NC(=O)[C@H]([C@@H](C)O)NC(=O)[C@H](CC(N)=O)NC1=O)NC(=O)[C@H](CC(C)(C)C)NC(=O)[C@H](CC(=O)O)NC2=O (stereo partly drawn) [I-1739, Ac-PL3-Asp-Npg-B5-Asn-Thr-Ala-Ala-Phe-Asn-PyrS2-3MeF-BztA-Gln-NH2] | 3650
6 | CC(=O)N1CCC[C@H]1C(=O)N[C@@H](CC(=O)O)C(=O)N[C@@H](CC(C)(C)C)C(=O)N[C@]1(C)CCCCCCCOC(=O)N2CC[C@@](C(=O)N[C@@H](Cc3ccsc3)C(=O)N[C@@H](Cc3csc4ccccc34)C(=O)N[C@@H](CCC(N)=O)C(N)=O)(C2)NC(=O)[C@H](CC(C)C)NC(=O)[C@H](Cc2ccccc2)NC(=O)[C@H](C)NC(=O)[C@H](C)NC(=O)[C@H](CC(=O)O)NC(=O)[C@H](CC(=O)O)NC1=O [I-1992, Ac-Pro-Asp-Npg-R4-Asp-Asp-Ala-Ala-Phe-Leu-PyrS2-3Thi-BztA-Gln-NH2] | 536
7 | CC(=O)N1CCC[C@]12CC=CCCCC1(CCCC=CCCCOC(=O)N3CC[C@@](C(=O)N[C@@H](Cc4cccc(C(N)=O)c4)C(=O)N[C@@H](Cc4csc5ccccc45)C(=O)N[C@@H](CCC(N)=O)C(N)=O)(C3)NC(=O)[C@H](CC(N)=O)NC(=O)[C@H](Cc3ccccc3)NC(=O)[C@H](C)NC(=O)[C@H](CCCCNC(C)C)NC(=O)[C@H](CCC(N)=O)NC(=O)[C@H](CC(=O)O)NC1=O)NC(=O)[C@H](CC1CCCCC1)NC(=O)[C@H](CC(N)=O)NC2=O (stereo partly drawn) [I-2164, Ac-PL3-Asn-Cha-B5-Asp-Gln-iPrLys-Ala-Phe-Asn-PyrS2-3cbmf-BztA-Gln-NH2] | 1180
8 | CC(=O)N1CCC[C@]12CC=CCCCC1(CCCC=CCCCOC(=O)N3CC[C@@](C(=O)N[C@@H](Cc4cccc(Br)c4)C(=O)N[C@@H](CC4CCC4)C(=O)N[C@@H](CCC(N)=O)C(N)=O)(C3)NC(=O)[C@H](CC(C)C)NC(=O)[C@H](Cc3ccccc3)NC(=O)[C@H](C)NC(=O)[C@H](C)NC(=O)[C@H](Cc3cccc(C(=O)O)c3)NC(=O)[C@H](CC(=O)O)NC1=O)NC(=O)[C@H](CC(C)(C)C)NC(=O)[C@H](CC(=O)O)NC2=O (stereo partly drawn) [I-2154, Ac-PL3-Asp-Npg-B5-Asp-3COOHF-Ala-Ala-Phe-Leu-PyrS2-3BrF-Cba-Gln-NH2] | 9550
9 | CC(C)C[C@H](NC(=O)[C@]12CCN(C1)C(=O)OCCCC=CCCCC1(CCCC=CCCCC(=O)N3CCC[C@@]3(C)C(=O)N[C@@H](CC(=O)O)C(=O)N1)C(=O)N[C@@H](C)C(=O)N[C@@H](CC(=O)O)C(=O)N[C@@H](CC(=O)O)C(=O)N[C@@H](C)C(=O)N[C@@H](C)C(=O)N[C@@H](Cc1ccccc1)C(=O)N2)C(=O)N[C@@H](Cc1ccsc1)C(=O)N[C@@H](Cc1csc2ccccc12)C(=O)N[C@@H](CCC(N)=O)C(N)=O (stereo partly drawn) [I-2598, 5hexenyl-MePro-Asp-B5-Ala-Asp-Asp-Ala-Ala-Phe-PyrS2-Leu-3Thi-BztA-Gln-NH2] | 1350
10 | CC(=O)N1CCC[C@]12CC=CCCCC1(CCCC=CCCCOC(=O)N3CC[C@@](C(=O)N[C@@H](Cc4ccsc4)C(=O)N[C@@H](Cc4csc5ccccc45)C(=O)N[C@@H](CCC(N)=O)C(N)=O)(C3)NC(=O)[C@H](CC(C)C)NC(=O)[C@H](Cc3ccccc3)NC(=O)[C@H](C)NC(=O)[C@H](C)NC(=O)[C@H](CN3CCC[C@@H](C(=O)O)C3)NC(=O)[C@H](CC(=O)O)NC1=O)NC(=O)[C@H](CC(C)(C)C)NC(=O)[C@H](CC(=O)O)NC2=O (stereo partly drawn) [I-1967, Ac-PL3-Asp-Npg-B5-Asp-R3COOPipA-Ala-Ala-Phe-Leu-PyrS2-3Thi-BztA-Gln-NH2] | 14

Continued by falling IC50, values first:

Row | IC50 [nM] | SMILES
11 | 5140 | CC(=O)N1CCC[C@]12CC=CCCCC1(CCCC=CCCCOC(=O)N3CC[C@@](C(=O)N[C@@H](Cc4cccnc4)C(=O)N[C@@H](Cc4csc5ccccc45)C(=O)N[C@@H](CCO)C(N)=O)(C3)NC(=O)[C@H](CC(N)=O)NC(=O)[C@H](Cc3ccccc3)NC(=O)[C@H](C)NC(=O)[C@H](CCCCNC(C)C)NC(=O)[C@H](CCC(N)=O)NC(=O)[C@H](CC(=O)O)NC1=O)NC(=O)[C@H](CC1CCCCC1)NC(=O)[C@H](CC(N)=O)NC2=O (stereo partly drawn) [I-1927, Ac-PL3-Asn-Cha-B5-Asp-Gln-iPrLys-Ala-Phe-Asn-PyrS2-3PyrA-BztA-Hse-NH2]
12 | 3250 | CC(=O)N1CCC[C@]12CC=CCCCC1(CCCC=CCCCOC(=O)N3CC[C@@](C(=O)N[C@@H](Cc4ccccc4)C(=O)N[C@@H](Cc4csc5ccccc45)C(=O)N[C@@H](CCC(N)=O)C(N)=O)(C3)NC(=O)[C@H](CC(C)C)NC(=O)[C@H](Cc3ccccc3)NC(=O)[C@H](C)NC(=O)[C@H](CCO)NC(=O)[C@H]([C@@H](C)O)NC(=O)[C@H](CC(=O)O)NC1=O)NC(=O)[C@H](CC1CCCCC1)NC(=O)[C@H](CC(N)=O)NC2=O (stereo partly drawn) [I-2447, Ac-PL3-Asn-Cha-B5-Asp-Thr-Hse-Ala-Phe-Leu-PyrS2-Phe-BztA-Gln-NH2]
13 | 1630 | CC(=O)N1CCC[C@]12CCCCCCC1(CCCCCCOC(=O)N3CC(C(=O)N[C@@H](Cc4ccsc4)C(=O)N[C@@H](Cc4csc5ccccc45)C(=O)N[C@@H](CCC(N)=O)C(N)=O)(C3)NC(=O)[C@H](CC(N)=O)NC(=O)[C@H](Cc3ccccc3)NC(=O)[C@H](C)NC(=O)[C@H](C)NC(=O)[C@H](CC(=O)O)NC(=O)[C@H](CC(=O)O)NC1=O)NC(=O)[C@H](CC(C)(C)C)NC(=O)[C@H](CC(=O)O)NC2=O (stereo partly drawn) [I-1831, Ac-PL3-Asp-Npg-B5-Asp-Asp-Ala-Ala-Phe-Asn-Az-3Thi-BztA-Gln-NH2]
14 | 1310 | CC(=O)N1CCC[C@]12CC=CCCCC1(CCCC=CCCCOC(=O)N3CC[C@@](C(=O)N[C@@H](Cc4ccccc4)C(=O)N[C@@H](Cc4csc5ccccc45)C(=O)N[C@@H](CC(=O)N4CCOCC4)C(N)=O)(C3)NC(=O)[C@H](CC(C)C)NC(=O)[C@H](Cc3ccccc3)NC(=O)[C@H](C)NC(=O)[C@H]([C@@H](C)O)NC(=O)[C@H](CCC(N)=O)NC(=O)[C@H](CC(=O)O)NC1=O)NC(=O)[C@H](CC1CCCCC1)NC(=O)[C@H](CC(N)=O)NC2=O (stereo partly drawn) [I-2503, Ac-PL3-Asn-Cha-B5-Asp-Gln-Thr-Ala-Phe-Leu-PyrS2-Phe-BztA-MorphAsn-NH2]
15 | 26 | CC(=O)N1CCC[C@]12CC=CCCCC1(CCCC=CCCCOC(=O)N3CCC(C(=O)N[C@@H](Cc4ccsc4)C(=O)N[C@@H](Cc4csc5ccccc45)C(=O)N[C@@H](CCC(N)=O)C(N)=O)(CC3)NC(=O)[C@H](CC(C)C)NC(=O)[C@H](Cc3ccccc3)NC(=O)[C@H](C)NC(=O)[C@H](C)NC(=O)[C@H](Cc3cccc(C(=O)O)c3)NC(=O)[C@H](CC(=O)O)NC1=O)NC(=O)[C@H](CC(C)(C)C)NC(=O)[C@H](CC(=O)O)NC2=O (stereo partly drawn) [I-2588, Ac-PL3-Asp-Npg-B5-Asp-3COOHF-Ala-Ala-Phe-Leu-SPip2-3Thi-BztA-Gln-NH2]
